Test results from patent US20260070900A1, “A NOVEL CRYSTALLINE FORM OF PRITELIVIR” (Assembly Biosciences, Inc., priority 2022, published 2026).
Entries after “also recorded” stand apart in the source; their conditions may differ.

Columns and labels:
[1] = Solubility determination in 0.9% NaCl and 0.5% polysorbate 80 (HPLC of filtrate); format: physicochemical; conditions: RT, aqueous vehicle with 0.9% NaCl and 0.5% polysorbate 80, at 24 hours
Experimental: Sample preparation: excess Type 4 was added to the vehicle containing 0.9% NaCl and 0.5% polysorbate 80. The mixture was sonicated for 15 minutes, then agitated at 500 rpm at room temperature. At 24 hours, the mixture was filtrated, and filtrate was analyzed by HPLC to determine the solubility. • Instrument: Agilent 1260 • Column: ACE ultracore super C18 (100 mm*4.6 mm*2.5 μm) (P/N: CORE-25A-1046U) • Wavelength: 234 nm • Column Temperature: 20° C. • Column Flow: 1.0 mL/min • Acquisition time: 25 min • Injection volume: 5 μL • Retention time: ˜14 min • Mobile Phase A: 5 mM (NH4)2HPO4 and 5 mM of NH4H2PO4 in H2O • Mobile Phase B: ACN The solubility of Form C (hemihydrate as disclosed in WO 2018/096170) was determined in the same media used to determine the solubility of Type 4 as described above. Sample preparation: excess Form C was added to the vehicle containing 0.9% NaCl and 0.5% polysorbate 80. The mixture was sonicated for 15 minutes, then agitated at 500 rpm at room temperature. […]

[2] = Dynamic vapor sorption (DVS) humidity stability, with XRPD post-DVS; format: physicochemical
Experimental: Powder X-Ray Diffraction (PXRD): PXRD diffractograms were acquired on Rigaku Smartlab SE diffractometer using Cu, Kα, Kα1(Å):1.540598, Kα2(Å):1.544426 radiation with a Kα2:Kα1 intensity ratio of 0.50. X-Ray tube setting was 40 kV, 15 mA, Scan Mode 1D. The scan range (2 theta) was 3-40°, step size (2 theta) of 0.02° with scan speed (2 theta) of 10°/min. Dynamic Vapor Sorption (DVS): DVS analysis was performed on an Adventure DVS instrument, using a partial pressure range of 0-90%, with a step size of 10% and dm/dt=0.002. DVS data was collected at 25° C. 2 cycles were performed per analysis. Gas flow of N2 (200 sccm) was used.

[3] = DVS at 25° C., 0-90% partial pressure, 2 cycles

Structure (SMILES) | solubility [1] | relative humidity at which the form is stable (DVS) [2, 3] | relative humidity at which weight loss is observed (DVS) [2, 3] | solid form post DVS experiment by XRPD ([2]; after DVS, XRPD) | stability to humidity (in words) ([2]; conclusion from the characterization data of Example 1)
Cc1nc(N(C)C(=O)Cc2ccc(-c3ccccn3)cc2)sc1S(N)(=O)=O [Type 4, N-methyl-N-(4-methyl-5-sulfamoylthiazol-2-yl)-2-(4-(pyridin-2-yl)phenyl)acetamide] | around 18.2 μg/mL | greater than 20% | less than 10% | confirmed as Type 4 | stable across a large humidity range; also recorded: stable across a wide range of humidity levels
Cc1nc(N(C)C(=O)Cc2ccc(-c3ccccn3)cc2)sc1S(N)(=O)=O [Form C, N-methyl-N-(4-methyl-5-sulfamoylthiazol-2-yl)-2-(4-(pyridin-2-yl)phenyl)acetamide, reference compound] | around 8.4 μg/mL |  |  |  | 
